{
  "source": "patent US20100179225A1",
  "about": "“POI Prevention” (CYTOKINE PHARMASCIENCES, INC., priority 2008, published 2010)",
  "key": {"[1]": {"test_system": "nitric oxide (NO) production in ME", "assay": "Nitric oxide release from rat ME cultures (Griess reaction) after IM", "assay_type": "in vivo", "conditions": "rats", "method": "Animals underwent IM after intravenous CNI-1493 (5 mg/kg) or oral CPSI-2364 (1 mg/kg or 0.1 mg/kg) administration 90 minutes before surgery. Control animals received CNI-1493 (5 mg/kg) intravenously or CPSI-2364 orally (1 mg/kg or 0.1 mg/kg), but were not operated.\nTotal ME from small intestine was isolated 24 h after operation as described above and then cut into small pieces and washed for 30 minutes in PBS containing a penicillin/streptomycin (200U/200 μg) mixture. Aliquots of ˜50 mg were incubated in 1 mL of DMEM at 37° C. and 5% CO2 for further 24 hours and tissue culture supernatants were frozen in liquid nitrogen. The muscle tissue was blotted dry, and the exact weight was measured. To quantify the generation of NO from intestinal smooth muscle preparations, nitrite production was measured by the Griess reaction as described previously (Kalff J C, Schraut W H, Billiar T R et al. Role of inducible nitric oxide synthase in postoperative intestinal smooth muscle dysfunction in rodents. Gastroenterology 2000; 118:316-327). In brief, supernatant from the tissue culture was mixed with an equal volume of Griess reagent (0.1% N-(1-napthyl)ethyl-enediamine dihydrochloride and 1% sulfanilamide in 6% phosphoric acid; 1:1) and incubated for 10 minutes. The absorbance at 550 nm was measured with a microplate reader and compared with standard dilutions of sodium nitrite. […]"}, "p38-MAPK": {"test_system": "p38-MAPK", "assay": "p38-MAPK activation in CSF-1 mutant op−/− mice (Pathscan-Phospho-p38α-ELISA)", "assay_type": "in vivo", "conditions": "5 mg/kg i.v. preoperative, 20 minutes after IM, mean±SEM", "text": "Male C57BL/6J mice ([…] bodyweight) were obtained from Harlan-Winkelmann (Borchen, Germany). CSF-1 mutant op−/− mice (strain B6C3Fe a/a-Csf1op) and populations of unknown heterozygous or wildtype genotype (op+/?) of mixed gender were used at an age of 6 weeks and bred as described before (Wehner S, Behrendt F F, Lyutenski B N et al. Inhibition of macrophage function prevents intestinal inflammation and postoperative ileus in rodents. Gut 2007; 56:176-185). op−/− mice were phenotyped by the absence of incisors at day P10. All experiments were performed in accordance with the federal law regarding the protection of animals. The principles of laboratory animal care were followed. Animals were maintained on a 12-hour light/dark cycle and provided with commercially available rodent chow and tap water ad libitum.\np38-MAPK phosphorylation was evaluated in unoperated homozygous colony stimulating factor-1 mutant mice (op−/−) mice, or in op−/− and op+/? mice (a mixed population of unknown heterozygous +/− or homozygous +/+ wildtype mice) 20 minutes after IM. […] Additionally, CNI-1493 (5 mg/kg) pretreated op−/− mice were analyzed. In this experiment, p38-MAPK phosphorylation was quantified by the Pathscan-Phospho-p38α-ELISA following manufacturer's instructions. Phospho-p38 content of each probe was determined in duplicate from lysates with 6.25 μg total protein content."}, "ICAM-1 mRNA": {"test_system": "ICAM-1 mRNA", "assay": "Proinflammatory gene expression in ME, real-time RT-PCR: ICAM-1", "assay_type": "in vivo, mice", "conditions": "5 mg/kg i.v. preoperative", "text": "The small bowel of the animals was subjected to a standardized, surgical manipulation (IM) as described previously (Kalff J C, Schraut W H, Simmons R L et al. Surgical manipulation of the gut elicits an intestinal muscularis inflammatory response resulting in postsurgical ileus. Ann Surg 1998; 228:652-663; Wehner S, Schwarz N T, Hundsdoerfer R et al. Induction of IL-6 within the rodent intestinal muscularis after intestinal surgical stress. Surgery 2005; 137:436-446). In brief, after anesthesia a midline abdominal incision was made into the peritoneal cavity. […]\nProinflammatory gene expression was analyzed in placebo and CNI-1493 (5 mg/kg) treated animals at 1, 3, 6 and 24 hours after operation; n=5-7 each group. […] Total RNA was analyzed in ME specimen that was prepared as described before (Wehner S, Behrendt F F, Lyutenski B N et al. Inhibition of macrophage function prevents intestinal inflammation and postoperative ileus in rodents. Gut 2007; 56:176-185). […] Expression of mRNA was quantified in triplicate by a RT-PCR with gene expression assays for […] (MCP-1; #Mm00441242_m1), CCL3 (MIP-1α #Mm00441258_m1), IL-6 (Assay ID #Mm00446190_ml), TNF-α (#Mm00443258_m1) and ICAM-1 (#Mm00516023_m1). […] Data quantification was performed by the ΔΔCT method. […]"}},
  "data": [
    {"smiles": "C/C(=N\\N=C(N)N)c1cc(NC(=O)CCCCCCCCC(=O)Nc2cc(/C(C)=N/N=C(N)N)cc(/C(C)=N/N=C(N)N)c2)cc(/C(C)=N/N=C(N)N)c1.CS(=O)(=O)O.CS(=O)(=O)O.CS(=O)(=O)O.CS(=O)(=O)O", "note": "[CPSI-2364]", "values": [
      {"measurement": "NO production from ME vs placebo IM", "setting": "[1]; 0.1 mg/kg bodyweight p.o.", "value": "led to the described results"},
      {"measurement": "NO production from ME vs placebo IM", "setting": "[1]; p.o. preoperative (FIG. 12)", "value": "significantly diminished"}
    ]},
    {"smiles": "C/C(=N\\N=C(N)N)c1cc(NC(=O)CCCCCCCCC(=O)Nc2cc(/C(C)=N/N=C(N)N)cc(/C(C)=N/N=C(N)N)c2)cc(/C(C)=N/N=C(N)N)c1.Cl.Cl.Cl.Cl", "note": "[CNI-1493]", "values": [
      {"measurement": "p38-MAPK phosphorylation levels (phospho-p38 ELISA)", "setting": "p38-MAPK", "value": "3.24±0.66"},
      {"measurement": "ICAM-1 mRNA expression (fold upregulation)", "setting": "ICAM-1 mRNA; 1 hour after IM", "value": "3.3±0.70", "unit": "fold"},
      {"measurement": "ICAM-1 mRNA expression (fold upregulation)", "setting": "ICAM-1 mRNA; 3 hours after IM", "value": "7.2±2.8", "unit": "fold"}
    ]}
  ]
}
